Laboratory results published in ChEMBL document CHEMBL1201862, “PubChem BioAssay data set” (2004).
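Where inhibition never reached the appropriate level, the endpoint shown equals the highest concentration tested. Otherwise, values were interpolated linearly from a five-concentration, 48-hour dose response in 96-well plates. Abbreviation: GI50, concentration required for 50% inhibition of growth.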 Calls of active or inactive are those of the source. No stated cut-off is given here; in the data, active = GI50 up to about 1.1 µM and inactive = higher. Positions of bridges follow the written chain, without caps; N, C: chain ends. Residues, ends and D or L forms follow the SMILES beside them.

How the values were obtained:
Experiment in all cases: NCI-60 cell line screen, 48 h
786-0 = tested on: 786-0
A498 = tested on: A498
A549 = tested on: A549
ACHN = tested on: ACHN
COLO 205 = tested on: COLO 205
EKVX = tested on: EKVX
HOP-62 = tested on: HOP-62
HT-29 = tested on: HT-29
MDA-MB-231 = tested on: MDA-MB-231
MOLT-4 = tested on: MOLT-4
NCI-H23 = tested on: NCI-H23
RXF 393 = tested on: RXF 393
SF-268 = tested on: SF-268
SK-MEL-5 = tested on: SK-MEL-5
SK-OV-3 = tested on: SK-OV-3
UACC-257 = tested on: UACC-257
UACC-62 = tested on: UACC-62
NCI-H522 = tested on: NCI-H522
PC-3 = tested on: PC-3
RPMI-8226 = tested on: RPMI-8226

Compound	GI50 (786-0)	GI50 (A498)	GI50 (A549)	GI50 (ACHN)	GI50 (COLO 205)	GI50 (EKVX)	GI50 (HOP-62)	GI50 (HT-29)	GI50 (MDA-MB-231)	GI50 (MOLT-4)	GI50 (NCI-H23)	GI50 (RXF 393)	GI50 (SF-268)	GI50 (SK-MEL-5)	GI50 (SK-OV-3)	GI50 (UACC-257)	GI50 (UACC-62)	GI50 (NCI-H522)	GI50 (PC-3)	GI50 (RPMI-8226)
COc1cccc(/C=C2\S/C(=N/Nc3nc(C)c(C)s3)NC2=O)c1O	> 100 µM (inactive)	> 100 µM (inactive)	> 100 µM (inactive)	> 100 µM (inactive)	> 100 µM (inactive)	37 µM (inactive)	> 100 µM (inactive)	> 100 µM (inactive)	> 100 µM (inactive)	49.3 µM (inactive)	> 100 µM (inactive)	79.4 µM (inactive)	> 100 µM (inactive)	50.2 µM (inactive)	> 100 µM (inactive)	> 100 µM (inactive)	69.5 µM (inactive)	–	–	–
NC(=O)CCC(NC(=O)c1cccc2c(=O)c3ccccc3[nH]c12)C(=O)O (stereo not drawn)	> 100 µM (inactive)	> 100 µM (inactive)	> 100 µM (inactive)	> 100 µM (inactive)	> 100 µM (inactive)	> 100 µM (inactive)	> 100 µM (inactive)	> 100 µM (inactive)	> 100 µM (inactive)	> 100 µM (inactive)	> 100 µM (inactive)	–	> 100 µM (inactive)	> 100 µM (inactive)	> 100 µM (inactive)	–	> 100 µM (inactive)	> 100 µM (inactive)	> 100 µM (inactive)	> 100 µM (inactive)
CN(C)C=[N+]=[N-]	> 100 µM (inactive)	> 100 µM (inactive)	> 100 µM (inactive)	> 100 µM (inactive)	> 100 µM (inactive)	> 100 µM (inactive)	> 100 µM (inactive)	> 100 µM (inactive)	–	> 100 µM (inactive)	> 100 µM (inactive)	> 100 µM (inactive)	> 100 µM (inactive)	> 100 µM (inactive)	> 100 µM (inactive)	> 100 µM (inactive)	> 100 µM (inactive)	0.17 µM (active)	–	> 100 µM (inactive)
CCOC(=O)Cc1ccc2c(c1O)C(=O)c1c(ccc(CC(=O)OCC)c1O)C2=O	> 100 µM (inactive)	> 100 µM (inactive)	> 100 µM (inactive)	> 100 µM (inactive)	> 100 µM (inactive)	> 100 µM (inactive)	> 100 µM (inactive)	> 100 µM (inactive)	–	87.9 µM (inactive)	> 100 µM (inactive)	33 µM (inactive)	> 100 µM (inactive)	20.4 µM (inactive)	> 100 µM (inactive)	> 100 µM (inactive)	> 100 µM (inactive)	> 100 µM (inactive)	–	> 100 µM (inactive)
O=C(CNc1ccccc1C(=O)O)Nn1cnc2ccc(S(=O)(=O)Nc3ccccc3C(=O)O)cc2c1=O	> 100 µM (inactive)	–	> 100 µM (inactive)	> 100 µM (inactive)	> 100 µM (inactive)	> 100 µM (inactive)	> 100 µM (inactive)	> 100 µM (inactive)	> 100 µM (inactive)	> 100 µM (inactive)	> 100 µM (inactive)	–	> 100 µM (inactive)	–	> 100 µM (inactive)	> 100 µM (inactive)	> 100 µM (inactive)	> 100 µM (inactive)	> 100 µM (inactive)	> 100 µM (inactive)
SC1=NC2=C(CSC/C2=C\c2ccccc2)C(c2ccccc2)N1 (stereo not drawn)	34.2 µM (inactive)	–	38.5 µM (inactive)	49.7 µM (inactive)	37.5 µM (inactive)	45.5 µM (inactive)	> 100 µM (inactive)	32.6 µM (inactive)	45.1 µM (inactive)	27.7 µM (inactive)	31.9 µM (inactive)	27.9 µM (inactive)	64.6 µM (inactive)	12.1 µM (inactive)	92.7 µM (inactive)	22.3 µM (inactive)	27.9 µM (inactive)	59.4 µM (inactive)	34.4 µM (inactive)	35.2 µM (inactive)
CCSc1nc(-c2cccs2)nc2ccc(I)cc12	> 100 µM (inactive)	–	> 100 µM (inactive)	> 100 µM (inactive)	> 100 µM (inactive)	46.9 µM (inactive)	> 100 µM (inactive)	> 100 µM (inactive)	–	> 100 µM (inactive)	> 100 µM (inactive)	> 100 µM (inactive)	> 100 µM (inactive)	> 100 µM (inactive)	–	> 100 µM (inactive)	> 100 µM (inactive)	> 100 µM (inactive)	> 100 µM (inactive)	> 100 µM (inactive)
COC(=O)C1CCC(=O)NCCCCC(NC(=O)C(N)CC(=O)O)C(=O)N1 (stereo not drawn) (H-Asp-Lys-Glu-OMe; lactam 2-3; configuration not given here)	71.9 µM (inactive)	–	> 100 µM (inactive)	41.2 µM (inactive)	> 100 µM (inactive)	> 100 µM (inactive)	> 100 µM (inactive)	> 100 µM (inactive)	> 100 µM (inactive)	> 100 µM (inactive)	92.5 µM (inactive)	> 100 µM (inactive)	> 100 µM (inactive)	> 100 µM (inactive)	> 100 µM (inactive)	> 100 µM (inactive)	28.2 µM (inactive)	> 100 µM (inactive)	> 100 µM (inactive)	> 100 µM (inactive)
